Results taken from patent US6930118B2, “3-Oxadiazol-5-yl-1-aminoalkyl-1h-indole derivatives” (Amrad Operations Pty. Ltd., priority 2001, dated 2005).
pIC50: −log10 of the molar value. Where a name gives a salt, the structure may show the parent alone.

Assays:
CB1 receptor [1] = molecular target: T1, CB1 receptor (Mus musculus, UniProt P47746); assay: Mouse electrically-stimulated isolated vas deferens bioassay (MVD); assay type: cell-based; details: decrease of electrically evoked twitch force; for inhibition at 1 µM: read-out: CB1 (MVD) % inh at 1.0 μM
T1 construct: Mouse vasa deferentia were dissected with capsular connective tissue intact and set up in 20 ml organ baths; from tissue; host or cells: mouse (Swiss white) isolated vas deferens
T1 sequence (P47746 whole entry): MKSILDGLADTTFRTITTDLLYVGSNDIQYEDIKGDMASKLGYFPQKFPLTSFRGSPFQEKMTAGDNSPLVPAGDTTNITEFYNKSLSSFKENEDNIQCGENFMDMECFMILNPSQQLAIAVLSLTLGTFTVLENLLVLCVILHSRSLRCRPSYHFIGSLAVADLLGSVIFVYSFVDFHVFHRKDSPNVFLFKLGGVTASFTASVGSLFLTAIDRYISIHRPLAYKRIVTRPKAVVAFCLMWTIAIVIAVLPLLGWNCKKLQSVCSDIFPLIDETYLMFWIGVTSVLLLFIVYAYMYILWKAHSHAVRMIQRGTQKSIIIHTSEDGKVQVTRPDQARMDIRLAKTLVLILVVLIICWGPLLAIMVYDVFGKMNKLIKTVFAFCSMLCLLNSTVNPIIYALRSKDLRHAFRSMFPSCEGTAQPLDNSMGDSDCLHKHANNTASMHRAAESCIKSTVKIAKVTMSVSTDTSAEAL
Method: Functional activity of the compounds was assayed using the mouse electrically-stimulated vas deferens bioassay, a measure of CB1 receptor function (24,25). […] CB2 functionality may be investigated using assays known to those skilled in the art; for example those described in U.S. Pat. No. 6,013,648.
Swiss white mice (35-40 g) were killed by exposure to 80% CO2 in O2 and exsanguination. Mouse vasa deferentia were dissected with capsular connective tissue intact and set up in 20 ml organ baths at 37° C. in Mg^2+-free physiological salt solution. The upper (epididymal) end was attached to an isometric force transducer (Grass FTO3C) and the lower (prostatic) end tied to a fixed support between two parallel platinum field electrodes (5 mm apart, 5 mm long). The tissue was initially stretched by 0.5 g force and allowed to equilibrate 10 min. The tissues were stimulated (Grass S88 stimulator) to contract using trains of electrical field stimulation of 3 pulses (4 Hz), 0.5 ms duration, 100 V (80% maximal voltage) every 20 s for 10 min. This electrical stimulation period was applied before and after both antagonist and agonist addition. Output from the transducer amplifier was recorded on a flat bed recorder (Gould BS 272, Cleveland, Ohio, U.S.A.). All drugs were dissolved in dimethyl sulfoxide (DMSO; Sigma, St Louis, Mo., U.S.A.) and allowed to equilibrate with the tissue for 30 min before the responses to field stimulation were assessed. Drug effects were measured as the percentage decrease of the pre-drug twitch force.

CB2 receptor = molecular target: T2, CB2 receptor (Rattus norvegicus, UniProt Q9QZN9); assay: Radioligand binding assay, rat spleen membranes
T2 sequence (Q9QZN9 1-343 limits assumed): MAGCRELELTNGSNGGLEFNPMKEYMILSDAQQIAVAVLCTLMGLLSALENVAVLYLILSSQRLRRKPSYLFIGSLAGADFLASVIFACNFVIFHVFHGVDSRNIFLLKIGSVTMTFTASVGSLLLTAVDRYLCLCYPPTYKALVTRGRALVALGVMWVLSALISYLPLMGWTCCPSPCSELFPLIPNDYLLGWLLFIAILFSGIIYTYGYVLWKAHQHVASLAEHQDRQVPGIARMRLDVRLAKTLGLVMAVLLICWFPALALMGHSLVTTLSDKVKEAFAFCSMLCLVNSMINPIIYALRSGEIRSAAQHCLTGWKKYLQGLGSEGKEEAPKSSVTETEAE
Method: (§1) The affinity of compounds at cannabinoid receptors is routinely assessed using ligand binding assays known to those skilled in the art. Radioligand binding assays were conducted using rat cerebellum or rat spleen. The cerebellum of the rat is known to express predominantly, if not exclusively, the CB1 receptor subtype (20,21). Thus, binding constants obtained from these studies are characterised by a single affinity value, as only one receptor type is labelled. […] In contrast, biphasic binding curves in the spleen characterised by two affinity constants represent the profile of compounds showing selectivity for one receptor subtype over another. In order to determine the order of selectivity, the high and low affinity values obtained for these compounds in the spleen binding assays were compared to the single affinity estimates obtained for the cerebellum (CB1) assays.
Sprague Dawley rats (200-300 g) were killed by gassing with 80% CO2 in O2 and decapitation and the spleen excised rapidly and placed in ice-cold Tris-HCl buffer (Tris 50 mM, MgCl2 3 mM, EGTA 0.2 mM, pH 7.4). The spleen was weighed and diced using a scalpel before homogenisation in 10 volumes of Tris-HCl buffer. The homogenate was then made up to 20 volumes and centrifuged (12,600 g, 5 min, 4° C.), the supernatant was retained and centrifuged (23,800 g, 20 min, 4° C.). The pellet was resuspended in 10 volumes of buffer and assayed for protein content using the method of Bradford (Bradford, 1976) with BSA as the standard. The homogenate was then recentrifuged and the final pellet resuspended in Tris-HCl buffer at a protein concentration of 5 mg/ml and stored in 500 μl aliquots at −80° C. until used for the binding assay.
(§2) Ligand binding assays were performed in polypropylene tubes in a total volume of 1 ml containing Tris-HCl buffer, a final concentration of 1 mg/ml BSA, and varying concentrations of drugs. Tubes contained 30 μg of membrane protein and incubation was started by the addition of 100 μl of either 0.5 nM [^3H]SR141716A or 0.2 nM [^3H]WIN 55,212-2. Experiments were carried out in triplicate at 30° C. for 90 min with non-specific binding being defined as radioligand binding in the presence of 1 μM unlabelled WIN 55,212-2. Incubations were terminated by rapid filtration with a M-24 Cell Harvester (Brandel; Gaithersburg, Md., U.S.A.) using ice-cold Tris-HCl buffer containing 0.5 mg/ml BSA. Filters (Wattman GF/B) were soaked for 2 h prior to filtering in a solution of Tris-HCl buffer containing 3 mg/ml BSA and 0.5% w/w polyethyleneimine (PEI). Filters were left to dry thoroughly before placement into scintillation vials with 5 ml of scintillation cocktail (Ultima Gold LSC-cocktail; Packard Bioscience, Meriden, Conn., U.S.A.) being added. Vials were left to stand overnight before the radioactivity was determined using a Model 1409 DSA Liquid Scintillation counter (EG&E Wallac, Gaithersburg, Md., U.S.A.).
(§3) The resulting radioligand binding curves were analyzed by nonlinear regression using the program PRISM 3.0 (GraphPad Software, San Diego, Calif.) in order to derive ligand affinity estimates for the cannabinoid receptor(s).

CB1 receptor [2] = molecular target: T3, CB1 receptor (Rattus norvegicus, UniProt P20272); assay: Radioligand binding assay, rat cerebellum membranes
T3 construct: the cerebellum was dissected away from the rest of the brain, weighed and homogenised; from tissue; host or cells: Sprague Dawley rat cerebellum membranes
T3 sequence (P20272 whole entry): as the sequence (P47746 whole entry) above, with D95E counted along it
Method: as §1
Sprague Dawley rats of either sex (200-300 g) were killed by gassing with 80% CO2 in O2 and decapitation, and the entire brain excised rapidly and placed in ice-cold Tris-HCl buffer (Tris 50 mM, MgCl2 3 mM, EGTA 0.2 mM, pH to 7.4 with HCl). On ice, the cerebellum was dissected away from the rest of the brain, weighed and homogenised (PT-DA 1205/2EC Polytron Aggregate; Kinematica, Luzernerstrasse Switzland) in 10 volumes of ice-cold Tris-HCl buffer. The homogenate was then made up to 20 volumes and centrifuged (Model J2-M1, Beckman, Fullerton, Calif., U.S.A.) at […] for 15 min at 4° C.). Subsequently, the supernatant was discarded, the pellet resuspended in 20 volumes of buffer and centrifuged as before. The resulting pellet was then resuspended in 20 volumes of buffer and assayed for protein content using the method of Bradford (Bradford, 1976) in a Novaspec II spectrophotometer (Pharmacia Biotech; with bovine serum albumin (BSA; Hömosafe BSA, c/o ‘ScimaR’ Templestowe, Australia) as the standard. The homogenate was then recentrifuged and the final pellet resuspended in Tris-HCl buffer at a protein concentration of 5 mg/ml and stored in 500 μl aliquots at −80° C. until used in the binding assay.
as §2, §3

SMILES | inhibition at 1 µM (CB1 receptor [1]) [%] | pIC50 (CB2 receptor) | pIC50 (CB1 receptor [2]) | other results
c1ccc(Cc2noc(-c3cn(CCN4CCCC4)c4ccccc34)n2)cc1 (as salt: tartrate) [Compound 1, 3-(3-Benzyl-[1,2,4]-oxadiazol-5-yl)-1-[2-(pyrrolidin-1-yl)ethyl]-1H-indole] |  |  |  | melting point: 59 to 60 °C
CCCCC/C=C\C/C=C\C/C=C\C/C=C\CCCC(=O)NCCO [Anandamide, reference compound] | 84 |  |  | 
c1ccc(Cc2noc(-c3cn(CCN4CCOCC4)c4ccccc34)n2)cc1 [Compound 2, 3-(3-Benzyl-[1,2,4]-oxadiazol-5-yl)-1-[2-(morpholin-4-yl)ethyl]-1H-indole] | 96 | 6.00 | 6.00 | 
c1ccc(-c2noc(-c3cn(CCN4CCOCC4)c4ccccc34)n2)cc1 [Compound 3, 3-(3-Phenyl-[1,2,4]-oxadiazol-5-yl)-1-[2-(morpholin-4-yl)ethyl]-1H-indole] | 83 | 6.00 | 6.00 | melting point: 144 to 146 °C
c1csc(Cc2noc(-c3cn(CCN4CCOCC4)c4ccccc34)n2)c1 [Compound 4, 1-[2-(Morpholin-4-yl)ethyl]-3-(3-thien-2-ylmethyl-[1,2,4]oxadiazol-5-yl)-1H-indole] | 81 |  | 7.00 | 
c1ccc(Cc2noc(-c3cn(CCN4CCCCC4)c4ccccc34)n2)cc1 [Compound 5, 3-(3-Benzyl-[1,2,4]oxadiazol-5-yl)-1-[2-(piperidin-1-yl)ethyl]-1H-indole] | 46 |  |  | 
COc1ccc(Cc2noc(-c3cn(CCN4CCOCC4)c4ccccc34)n2)cc1 [Compound 6, 3-[3-(4-Methoxy-benzyl)-[1,2,4]oxadiazol-5-yl]-1-[2-(morpholin-4-yl)ethyl]-1H-indole] | 39 | 5.55 | 6.70 | 
Brc1ccc(Cc2noc(-c3cn(CCN4CCOCC4)c4ccccc34)n2)cc1 [Compound 7, 3-[3-(4-Bromo-benzyl)-[1,2,4]oxadiazol-5-yl]-1-[2-(morpholin-4-yl)ethyl]-1H-indole] | 58 |  |  | 
CCCCCn1cc(-c2nc(Cc3ccccc3)no2)c2ccccc21 [Compound 8, 3-(3-Benzyl-[1,2,4]oxadiazol-5-yl)-1-pentyl-1H-indole] | 100 | 6.40 | 8.22 | 
c1ccc(CCc2noc(-c3cn(CCN4CCOCC4)c4ccccc34)n2)cc1 [Compound 9, 1-[2-(morpholin-4-yl)ethyl]-3-(3-phenethyl-[1,2,4]oxadiazol-5-yl)-1H-indole] | 90 | 5.92 |  | 
Clc1ccccc1Cc1noc(-c2cn(CCN3CCOCC3)c3ccccc23)n1 [Compound 10, 3-[3-(2-Chlorobenzyl)-[1,2,4]-oxadiazol-5-yl]-1-[2-(morpholin-4-yl)ethyl]-1H-indole] | 95 |  |  | 
c1ccc(-c2ccc(-c3noc(-c4cn(CCN5CCOCC5)c5ccccc45)n3)cc2)cc1 [Compound 11, 3-[3-(Biphenyl)-[1,2,4]oxadiazole-5-yl]-1-[2-(morpholin-4-yl)ethyl]-1H-indole] |  | < 5.00 | < 5.00 | CB1 (MVD) % inh at 1.0 μM (CB1 receptor [1]): 11%
c1ccc2cc(Cc3noc(-c4cn(CCN5CCCC5)c5ccccc45)n3)ccc2c1 [Compound 12, 3-[3-(naphth-2-ylmethyl)-[1,2,4]-oxadiazol-5-yl]-1-[2-(pyrolidin-1-yl)ethyl]-1H-indole] |  |  |  | CB1 (MVD) % inh at 1.0 μM (CB1 receptor [1]): 96%
c1ccc2cc(Cc3noc(-c4cn(CCN5CCOCC5)c5ccccc45)n3)ccc2c1 [Compound 13, 3-[3-(naphth-2-ylmethyl)-[1,2,4]-oxadiazol-5-yl]-1-[2-(morpholin-4-yl)ethyl]-1H-indole] | 54 |  |  | 
CCOC(=O)CCCCn1cc(-c2nc(Cc3ccc4ccccc4c3)no2)c2ccccc21 [Compound 14, Ethyl 5-([3-(naphth-2-ylmethyl)-[1,2,4]-oxadiazole-5-yl]-1H-indol-1-yl)pentanoate] |  |  |  | CB1 (MVD) % inh at 1.0 μM (CB1 receptor [1]): 42%
O=C(O)CCCCn1cc(-c2nc(Cc3ccc4ccccc4c3)no2)c2ccccc21 [Compound 15, 5-([3-(Naphth-2-ylmethyl)-[1,2,4]-oxadiazole-5-yl]-1H-indol-1-yl)pentanoic acid] |  |  |  | CB1 (MVD) % inh at 1.0 μM (CB1 receptor [1]): 54%
CCOC(=O)CCn1cc(-c2nc(Cc3ccc4ccccc4c3)no2)c2ccccc21 [Compound 16, Ethyl 3-([3-(naphth-2-ylmethyl)-1,2,4-oxadiazol-5-yl]-1H-indol-1-yl)propanoate] |  |  |  | CB1 (MVD) % inh at 1.0 μM (CB1 receptor [1]): 77%
Cc1c(C(=O)c2cccc3ccccc23)c2cccc3c2n1[C@@H](CN1CCOCC1)CO3 [WIN-55212, WIN-55212-2, reference compound] | 100 |  |  | 
